Columns and labels:
[1] = molecular target: Sigma non-opioid intracellular receptor 1 (Cavia porcellus, UniProt Q60492)
[2] = molecular target: T1, Sigma intracellular receptor 2 (Rattus norvegicus, UniProt Q5U3Y7); test: Displacement of [3H]di-O-tolylguanidine from sigma 2 receptor in rat liver membrane by competitive radioligand receptor binding assay; format: cell membranes
T1 sequence (Q5U3Y7 whole entry): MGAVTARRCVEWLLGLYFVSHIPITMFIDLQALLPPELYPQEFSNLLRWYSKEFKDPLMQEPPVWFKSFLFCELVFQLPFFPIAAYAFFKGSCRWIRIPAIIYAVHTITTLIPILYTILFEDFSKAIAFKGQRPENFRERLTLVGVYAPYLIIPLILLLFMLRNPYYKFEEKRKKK

[3] = molecular target: Albumin (Homo sapiens, UniProt P02768); test: Protein binding in human serum albumin by HPAC analysis; format: ADME; settings: read-out: PB (converted)
[4] = Drug metabolism in mouse liver microsomes assessed as compound oxidization incubated for 90 mins in presence of NAPDH; format: ADME, Microsome; settings: read-out: Drug metabolism
[5] = tested on: Mus musculus; test: Antiallodynic activity in capsaicin-induced mechanical allodynia CD1 mouse model assessed as reduction in mechanical allodynia administered subcutaneously preincubated for 30 min followed by capsaicin injection and measured after 15 mins by Von Frey filament assay; format: functional, organism-based; settings: dose 8-32 mg/kg, route sc, time 45.0 min, DDE = dose-dependent effect
[6] = Distribution coefficient between n-Octanol and aqueous buffer, logD of the compound in pH 7.4 buffer by LC/MS analysis; format: physicochemical

Sigma non-opioid intracellular receptor 1, sequence (Q60492 whole entry): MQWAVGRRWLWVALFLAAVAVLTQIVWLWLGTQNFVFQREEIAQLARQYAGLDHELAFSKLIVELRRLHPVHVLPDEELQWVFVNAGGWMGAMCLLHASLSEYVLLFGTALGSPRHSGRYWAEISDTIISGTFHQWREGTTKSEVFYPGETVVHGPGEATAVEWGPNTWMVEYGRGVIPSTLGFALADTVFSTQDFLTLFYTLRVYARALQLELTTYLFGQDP
Albumin, sequence (P02768 whole entry): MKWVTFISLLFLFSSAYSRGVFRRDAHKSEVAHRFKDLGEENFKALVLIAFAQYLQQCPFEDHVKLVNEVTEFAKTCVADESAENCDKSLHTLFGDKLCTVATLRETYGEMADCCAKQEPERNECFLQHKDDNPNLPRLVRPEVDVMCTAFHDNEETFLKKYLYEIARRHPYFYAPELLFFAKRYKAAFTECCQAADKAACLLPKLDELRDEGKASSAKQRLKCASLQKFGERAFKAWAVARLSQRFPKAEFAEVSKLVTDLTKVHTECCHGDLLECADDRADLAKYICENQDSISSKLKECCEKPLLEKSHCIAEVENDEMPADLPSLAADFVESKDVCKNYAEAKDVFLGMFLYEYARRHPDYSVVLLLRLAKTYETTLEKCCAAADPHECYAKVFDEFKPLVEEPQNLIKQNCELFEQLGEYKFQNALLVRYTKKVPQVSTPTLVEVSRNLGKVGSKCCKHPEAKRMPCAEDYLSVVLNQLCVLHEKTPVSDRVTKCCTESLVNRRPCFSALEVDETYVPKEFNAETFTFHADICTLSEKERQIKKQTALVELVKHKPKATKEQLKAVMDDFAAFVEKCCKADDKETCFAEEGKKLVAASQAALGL

Row | SMILES | Ki [1] | Ki [2] | fraction unbound [3] | metabolised at 1.5 h [4] | Activity [5] | logD [6]
1 | O[C@H](CN1[C@@H]2CC[C@H]1C/C(=C/c1ccc(F)cc1)C2)c1ccccc1 | 0.45 nM | 11 nM |  |  |  | 
2 | O[C@@H](CN1[C@@H]2CC[C@H]1C/C(=C/c1ccc(F)cc1)C2)c1ccccc1 | 18 nM | 29 nM |  |  |  | 
3 | OC(CN1CCC(Cc2ccc(F)cc2)CC1)c1ccc(Cl)cc1 (centres undefined) [ELIPRODIL] | 94 nM | 71 nM |  |  |  | 
4 | O[C@H](CN1[C@@H]2CC[C@H]1C/C(=C\c1ccc(F)cc1)C2)c1ccccc1 | 6.6 nM | 27 nM |  |  |  | 
5 | O[C@@H](CN1[C@@H]2CC[C@H]1C/C(=C\c1ccc(F)cc1)C2)c1ccccc1 | 0.8 nM | 10 nM | 0.05 | 32% | Dde | 3.06
